# Results as given in ChEMBL document CHEMBL5360557 (Eur J Med Chem, 2023).
# Columns and labels:
# Cholinesterase [1] = target: T1, Cholinesterase (Homo sapiens, UniProt P06276); assay: Inhibition of recombinant human BuChE using butyrylthiocholine iodide as substrate at 10 uM preincubated with enzyme for 5 mins followed by substrate addition and measured after 1 min by Ellman's method relative to control; details: time 6.0 min
# Acetylcholinesterase = Acetylcholinesterase (Homo sapiens, UniProt P22303); assay: Inhibition of recombinant human AChE using acetylthiocholine iodide as substrate preincubated with enzyme for 5 mins followed by substrate addition and measured after 1 min by Ellman's method
# Chain of Acetylcholinesterase (P22303 whole entry): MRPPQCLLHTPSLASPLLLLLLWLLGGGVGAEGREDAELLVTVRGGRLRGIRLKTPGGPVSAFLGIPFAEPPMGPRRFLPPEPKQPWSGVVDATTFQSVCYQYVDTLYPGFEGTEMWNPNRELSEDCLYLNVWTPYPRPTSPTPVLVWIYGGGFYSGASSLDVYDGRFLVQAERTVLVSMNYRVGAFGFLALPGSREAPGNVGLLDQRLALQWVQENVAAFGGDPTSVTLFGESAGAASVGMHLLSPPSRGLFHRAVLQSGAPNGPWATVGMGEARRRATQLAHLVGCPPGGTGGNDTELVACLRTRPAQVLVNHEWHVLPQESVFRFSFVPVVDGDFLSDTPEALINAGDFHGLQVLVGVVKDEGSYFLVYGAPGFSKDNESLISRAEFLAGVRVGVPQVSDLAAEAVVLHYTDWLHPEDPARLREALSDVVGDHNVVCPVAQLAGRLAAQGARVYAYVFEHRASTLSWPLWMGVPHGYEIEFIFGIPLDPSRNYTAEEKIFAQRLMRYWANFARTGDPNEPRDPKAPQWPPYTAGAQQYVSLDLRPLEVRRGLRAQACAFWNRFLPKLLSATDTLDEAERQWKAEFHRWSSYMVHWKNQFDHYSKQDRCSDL
# Cholinesterase [2] = target: T1, Cholinesterase; assay: Inhibition of recombinant human BuChE using butyrylthiocholine iodide as substrate preincubated with enzyme for 5 mins followed by substrate addition and measured after 1 min by Ellman's method
# [3] = Cytotoxicity against human SH-SY5Y cells assessed as inhibition of cell growth incubated for 24 hrs by MTT assay; format: toxicity, cell-based
# [4] = Cytotoxicity against human HepG2 cells assessed as inhibition of cell growth incubated for 24 hrs by MTT assay; format: toxicity, cell-based
# in vitro = details: PAMPA
# Description: Permeability of the compound incubated for 3 to 6 hrs by PAMPA-BBB assay
# T1 sequence (P06276 whole entry): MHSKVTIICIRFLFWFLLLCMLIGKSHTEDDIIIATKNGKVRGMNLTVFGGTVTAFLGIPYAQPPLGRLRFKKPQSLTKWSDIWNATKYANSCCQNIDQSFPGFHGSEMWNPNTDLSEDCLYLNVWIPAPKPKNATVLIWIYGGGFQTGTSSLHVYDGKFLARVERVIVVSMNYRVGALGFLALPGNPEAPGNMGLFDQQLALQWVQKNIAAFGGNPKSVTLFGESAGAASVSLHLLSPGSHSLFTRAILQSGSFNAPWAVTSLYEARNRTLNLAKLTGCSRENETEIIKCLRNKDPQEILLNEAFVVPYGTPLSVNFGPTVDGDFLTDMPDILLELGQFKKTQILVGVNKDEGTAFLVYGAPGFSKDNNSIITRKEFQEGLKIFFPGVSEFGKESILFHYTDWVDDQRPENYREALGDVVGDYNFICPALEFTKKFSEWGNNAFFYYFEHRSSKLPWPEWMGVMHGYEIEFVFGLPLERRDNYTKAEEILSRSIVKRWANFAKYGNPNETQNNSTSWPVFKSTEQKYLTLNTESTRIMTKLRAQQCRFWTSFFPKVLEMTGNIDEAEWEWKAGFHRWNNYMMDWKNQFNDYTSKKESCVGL
Structure (SMILES),inhibition (Cholinesterase [1]) [%],IC50 (Acetylcholinesterase) [µM],IC50 (Cholinesterase [2]) [nM],IC50 at 24 h [3] [µM],IC50 at 24 h [4] [µM],Papp (in vitro) [×10⁻⁶ cm/s]
COc1cccc(CCNCc2cccc(OC)c2OCc2ccccc2)c1,77,> 10,2500,–,–,–
C#CCOc1ccc(CCN(CC=C)Cc2cccc(OC)c2OCc2ccccc2)cc1,64,> 10,2200,–,–,–
C=CCN(CCCc1ccccc1)Cc1cccc(OC)c1OCc1ccccc1,98,> 10,40,> 200,> 200,28
C#CCN(CCc1ccccc1OC)Cc1cccc(OC)c1OCc1ccccc1,35,> 10,> 10000,–,–,–
CCCN(CCc1ccccc1)Cc1cccc(OC)c1OCc1ccccc1,91,> 10,500,–,–,–
C=CCN(CCc1ccc(OC)cc1)Cc1cccc(OC)c1OCc1ccccc1,72,> 10,2000,–,–,–
CCCN(CCCc1ccc(F)cc1)Cc1cccc(OC)c1OCc1ccccc1,96,> 10,100,170,32,61
COc1ccc2c3c1O[C@H]1C[C@@H](O)C=C[C@@]31CCN(C)C2 [GALANTAMINE],–,–,–,4700,4200,–
COc1cccc(CN(C)CCCc2ccccc2)c1OCc1ccccc1,97,> 10,100,–,–,–
COc1ccccc1CCN(C)Cc1cccc(OC)c1OCc1ccccc1,85,> 10,800,–,–,–
C=CCN(CCc1cccc(OC)c1)Cc1cccc(OC)c1OCc1ccccc1,76,> 10,1500,–,–,–
COc1cccc(CNCCCCc2ccccc2)c1OCc1ccccc1,94,> 10,200,–,–,–
CCCN(CCCc1ccccc1O)Cc1cccc(OC)c1OCc1ccccc1,95,> 10,220,–,–,–
CCCN(CCc1ccccc1OC)Cc1cccc(OC)c1OCc1ccccc1,92,> 10,700,–,–,–
CCOc1ccc(CCN(CC)Cc2cccc(OC)c2OCc2ccccc2)cc1,84,> 10,900,–,–,–
COc1cccc(/C=N/CCc2ccc(O)cc2)c1OCc1ccccc1,48,> 10,8000,–,–,–
CCN(CCc1ccccc1)Cc1cccc(OC)c1OCc1ccccc1,91,> 10,600,–,–,–
C#CCN(CCc1ccc(OCC=C)cc1)Cc1cccc(OC)c1OCc1ccccc1,42,> 10,> 10000,–,–,–
COc1cccc(CNCC(C)c2ccccc2)c1OCc1ccccc1 (stereo not drawn),96,> 10,160,–,–,–
C=CCCN(CCCc1ccccc1)Cc1cccc(OC)c1OCc1ccccc1,97,> 10,70,131,92,33
C#CCOc1ccc(CCN(CC#C)Cc2cccc(OC)c2OCc2ccccc2)cc1,72,> 10,200,–,–,–
C=CCN(CCc1ccc(O)cc1)Cc1cccc(OC)c1OCc1ccccc1,96,> 10,300,–,–,–
CCCN(CCc1ccc(OC)cc1)Cc1cccc(OC)c1OCc1ccccc1,82,> 10,1400,–,–,–
C=CCN(CCc1ccccc1OC)Cc1cccc(OC)c1OCc1ccccc1,90,> 10,300,–,–,–
CCCCCCN(CCCc1ccccc1)Cc1cccc(OC)c1OCc1ccccc1,95,> 10,40,110,106,9

Structure (SMILES),inhibition (Cholinesterase [1]) [%],IC50 (Acetylcholinesterase) [µM],IC50 (Cholinesterase [2]) [nM],IC50 at 24 h [3] [µM],IC50 at 24 h [4] [µM],Papp (in vitro) [×10⁻⁶ cm/s]
C=CCN(CCc1ccccc1)Cc1cccc(OC)c1OCc1ccccc1,88,> 10,400,–,–,–
C#CCN(CCc1ccccc1)Cc1cccc(OC)c1OCc1ccccc1,46,> 10,> 10000,–,–,–
COc1cccc(CNC(C)CCc2ccccc2)c1OCc1ccccc1 (stereo not drawn),97,> 10,130,–,–,–
CCN(CCc1cccc(OC)c1)Cc1cccc(OC)c1OCc1ccccc1,88,> 10,900,–,–,–
CCN(CCCc1ccccc1)Cc1cccc(OC)c1OCc1ccccc1,98,> 10,60,34,23,–
CCN(CCc1ccc(OC)cc1)Cc1cccc(OC)c1OCc1ccccc1,77,> 10,2500,–,–,–
COc1cccc(CNCc2ccccc2)c1OCc1ccccc1,78,> 10,1500,–,–,–
CCCCCCCCCCCCCCN(CCCCc1ccccc1)Cc1cccc(OC)c1OCc1ccccc1,25,> 10,> 10000,–,–,–
CCN(CCc1ccc(O)cc1)Cc1cccc(OC)c1OCc1ccccc1,94,> 10,300,–,–,–
COc1cccc(CN(CCCCc2ccccc2)CCCC(C)C)c1OCc1ccccc1,87,> 10,290,–,–,–
C#CCN(CCCc1ccccc1)Cc1cccc(OC)c1OCc1ccccc1,76,> 10,230,–,–,–
CCCN(CCc1cccc(OC)c1)Cc1cccc(OC)c1OCc1ccccc1,89,> 10,900,–,–,–
C#CCN(CCc1ccc(OC)cc1)Cc1cccc(OC)c1OCc1ccccc1,66,> 10,1300,–,–,–
C#CCN(CCc1ccc(O)cc1)Cc1cccc(OC)c1OCc1ccccc1,78,> 10,1900,–,–,–
CCN(CCc1ccccc1OC)Cc1cccc(OC)c1OCc1ccccc1,94,> 10,700,–,–,–
C#CCN(CCc1cccc(OC)c1)Cc1cccc(OC)c1OCc1ccccc1,28,> 10,> 10000,–,–,–
CO/N=C(\C(=O)N[C@@H]1C(=O)N2C(C(=O)O)=C(COC(N)=O)CS[C@H]12)c1ccco1 [CEFUROXIME],–,–,–,–,–,0.6
COc1ccc(CCNCc2cccc(OC)c2OCc2ccccc2)cc1,94,> 10,400,–,–,–
COc1cccc(CNCCc2ccccc2)c1OCc1ccccc1,93,> 10,400,–,–,–
CCCCCCN(CCCCc1ccccc1)Cc1cccc(OC)c1OCc1ccccc1,78,> 10,700,–,–,–
COc1ccccc1CCNCc1cccc(OC)c1OCc1ccccc1,88,> 10,800,–,–,–
COc1ccc(CCN(C)Cc2cccc(OC)c2OCc2ccccc2)cc1,76,> 10,3200,–,–,–
CCCN(CCCc1cccc(O)c1)Cc1cccc(OC)c1OCc1ccccc1,96,> 10,160,–,–,–
C=CCOc1ccc(CCN(CC=C)Cc2cccc(OC)c2OCc2ccccc2)cc1,71,> 10,1300,–,–,–
COc1cccc(CNCCCc2ccccc2)c1OCc1ccccc1,97,> 10,90,8.9,–,21
